{"source": "paper PMC9305358", "about": "(The Journal of Biological Chemistry, 2022)", "key": {"FITC-casein": {"target": "FITC-casein", "experiment": "fluorescence polarisation"}, "ClpC1-F444S [1]": {"system": "ClpC1-F444S", "type": "biochemical, Mycobacterium tuberculosis"}, "ClpC1-F444S [2]": {"system": "ClpC1-F444S", "type": "biochemical, Mycobacterium tuberculosis", "remark": "listed apart in the source"}, "ClpC1-E288A": {"system": "ClpC1-E288A", "type": "biochemical, Mycobacterium tuberculosis"}, "ClpC1-E626A": {"system": "ClpC1-E626A", "type": "biochemical, Mycobacterium tuberculosis"}, "ClpC1-WT–ClpP1P2 [3]": {"system": "ClpC1-WT–ClpP1P2", "type": "biochemical, Mycobacterium tuberculosis"}, "ClpC1-F444S–ClpP1P2 [4]": {"system": "ClpC1-F444S–ClpP1P2", "type": "biochemical, Mycobacterium tuberculosis"}, "ClpC1-E288A with Sa ClpP": {"system": "ClpC1-E288A with Sa ClpP", "type": "biochemical, Mycobacterium tuberculosis ClpC1; Staphylococcus aureus ClpP"}, "ClpC1-E626A with Sa ClpP": {"system": "ClpC1-E626A with Sa ClpP", "type": "biochemical, Mycobacterium tuberculosis ClpC1; Staphylococcus aureus ClpP"}, "ClpC1-WT–ClpP1P2 [5]": {"system": "ClpC1-WT–ClpP1P2", "type": "biochemical, Mycobacterium tuberculosis", "conditions": "pH 7.5"}, "ClpC1-F444S–ClpP1P2 [6]": {"system": "ClpC1-F444S–ClpP1P2", "type": "biochemical, Mycobacterium tuberculosis", "remark": "listed apart in the source"}, "ClpC1-WT–P1P2": {"system": "ClpC1-WT–P1P2", "type": "biochemical, Mycobacterium tuberculosis"}, "ClpC1-F444S–ClpP1P2 [7]": {"system": "ClpC1-F444S–ClpP1P2", "type": "biochemical, Mycobacterium tuberculosis", "remark": "listed apart in the source"}, "ClpC1-WT and ClpP1P2": {"system": "ClpC1-WT and ClpP1P2", "type": "biochemical, Mycobacterium tuberculosis"}, "ClpC1-F444S and ClpP1P2": {"system": "ClpC1-F444S and ClpP1P2", "type": "biochemical, Mycobacterium tuberculosis"}, "ClpC1–Sa ClpP": {"system": "ClpC1–Sa ClpP", "type": "biochemical, Mycobacterium tuberculosis ClpC1; Staphylococcus aureus ClpP"}, "Mtb cells": {"system": "Mtb cells", "conditions": "ref [19], cited from earlier work"}, "NMtb–ClpC": {"system": "NMtb–ClpC", "conditions": "ref [26]; cited from earlier work"}, "Sa ClpC": {"system": "Sa ClpC", "conditions": "ref [26]; cited from earlier work"}}, "data": [{"substance": "ATPase-deficient double Walker B variant ClpC1-E288A-E626A (from UniProt P9WPC9 1-848) (enzyme)", "values": [{"measurement": "Kd", "setting": "FITC-casein", "value": 1000, "unit": "nM"}]}, {"substance": "CyclomarinA [CymA]", "values": [{"measurement": "change of mass profile", "setting": "ClpC1-F444S [1]", "value": "No major changes in mass profiles"}, {"measurement": "change of crosslink pattern / hexamer level", "setting": "ClpC1-F444S [2]", "value": "remained the same"}, {"measurement": "effect on ATP hydrolysis of ClpC1-E288A", "setting": "ClpC1-E288A", "value": "stimulated ATP hydrolysis of ClpC1-E288A"}, {"measurement": "effect on ATP hydrolysis of ClpC1-E626A", "setting": "ClpC1-E626A", "value": "but not ClpC1-E626A"}, {"measurement": "inhibition of ClpC1-WT–ClpP1P2 activity", "setting": "ClpC1-WT–ClpP1P2 [3]", "value": "did not observe strong inhibition"}, {"measurement": "increase of basal FITC-casein degradation activity", "setting": "ClpC1-WT–ClpP1P2 [3]; pH 7.5", "value": "fourfold"}, {"measurement": "effect of CymA on FITC-casein degradation by ClpC1-F444S–ClpP1P2", "setting": "ClpC1-F444S–ClpP1P2 [4]", "value": "further enhanced"}, {"measurement": "effect on FITC-casein degradation", "setting": "ClpC1-E288A with Sa ClpP", "value": "did not enhance FITC-casein degradation"}, {"measurement": "effect on FITC-casein degradation", "setting": "ClpC1-E626A with Sa ClpP", "value": "did not enhance FITC-casein degradation"}, {"measurement": "enhancement of GFP-SsrA degradation", "setting": "ClpC1-WT–ClpP1P2 [5]", "value": 1.8, "unit": "fold"}, {"measurement": "effect of CymA on GFP-SsrA degradation by ClpC1-F444S–ClpP1P2", "setting": "ClpC1-F444S–ClpP1P2 [6]", "value": "slightly reduced"}, {"measurement": "effect on VapB15 degradation", "setting": "ClpC1-WT–P1P2", "value": "minor inhibition"}, {"measurement": "effect on VapB15 degradation", "setting": "ClpC1-F444S–ClpP1P2 [7]", "value": "inhibitory effect"}, {"measurement": "enhancement of FR-L-GFP degradation rate by CymA", "setting": "ClpC1-WT and ClpP1P2", "value": 1.6, "unit": "fold"}, {"measurement": "reduction of ClpS-dependent FR-L-GFP degradation activity of ClpC1-F444S by CymA", "setting": "ClpC1-F444S and ClpP1P2", "value": 2.3, "unit": "fold"}, {"measurement": "effect on FITC-casein degradation by ClpC1–Sa ClpP", "setting": "ClpC1–Sa ClpP", "value": "comparable to those determined for ClpC1–ClpP1P2 complexes"}, {"measurement": "toxicity to Mtb cells", "setting": "Mtb cells; [20], [21], [22]", "value": "highly toxic to Mtb cells"}, {"measurement": "cellular toxicity in Mtb cells", "setting": "Mtb cells", "value": "severe cellular toxicity"}, {"measurement": "effect on ATPase and proteolytic activities of NMtb–ClpC", "setting": "NMtb–ClpC", "value": "increases both ATPase and proteolytic activities"}, {"measurement": "sensitivity of Sa ClpC WT with native NTD to CymA", "setting": "Sa ClpC", "value": "insensitive"}]}]}
